Laboratory results: US20060069132A1, “Azolecarboxamide herbicides” (priority 2004, published 2006)

What was measured:
giant foxtail = assay: Test B pre-/postemergence herbicide test; format: in vivo, Setaria faberi
In short: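 Herbicidal effect was judged by eye on a 0–100 scale after plants stood 13 to 15 days in the greenhouse following pre- or postemergence treatment with surfactant-containing formulations.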

cocklebur = assay: Test C pre-/postemergence herbicide test; format: in vivo, Xanthium strumarium; settings: for Plant response rating, Cocklebur: preemergence; for Cocklebur plant response rating: Preemergence, 500 g ai/ha, scale 0 to 100, 0 no effect, 100 complete control
In short: (§1)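 Pre- and postemergence application, solvent/surfactant formulation; post at 1- to 4-leaf stage (2–18 cm). Greenhouse 12–14 d. Visual rating vs controls, 0 = no effect, 100 = complete control.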

corn = assay: Test C pre-/postemergence herbicide test; format: in vivo, Zea mays; settings: for Plant response rating, Corn: preemergence
In short: as §1

kochia = assay: Test C pre-/postemergence herbicide test; format: in vivo, Kochia scoparia; settings: for Plant response rating, Kochia: preemergence
In short: as §1

yellow nutsedge = assay: Test C pre-/postemergence herbicide test; format: in vivo, Cyperus esculentus; settings: for Plant response rating, Nutsedge, Yellow: preemergence
In short: as §1

pigweed = assay: Test C pre-/postemergence herbicide test; format: in vivo, Amaranthus retroflexus; settings: for Plant response rating, Pigweed: preemergence
In short: as §1

ducksalad = assay: Test C flooded paddy test; format: in vivo, Heteranthera limosa; settings: for Plant response rating, Ducksalad: 500 g ai/ha, visual rating after 12 to 14 days
barnyardgrass = assay: Test C flooded paddy test; format: in vivo, Echinochloa crus-galli; settings: for Plant response rating, Barnyardgrass: 500 g ai/ha, visual rating after 12 to 14 days
In short: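 Weeds and wheat were sprayed after emergence, at a height of 2 to 18 cm (1–4 leaves), and paddy barnyardgrass was flooded and treated at two leaves. Assessment took place 12–14 days later in the greenhouse on a 0-to-100 visual control scale. A dash means no result was obtained.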

[1] = 250 g ai/ha, scale 0 to 100 (0 no effect, 100 complete control), visual, 12 to 14 days
[2] = 125 g ai/ha, scale 0 (no effect) to 100 (complete control), visual, 12 to 14 days
[3] = Preemergence, 500 g ai/ha, scale 0 to 100, 0 no effect, 100 complete control
[4] = 62 g ai/ha, scale 0 to 100 (0 no effect, 100 complete control)
[5] = 125 g ai/ha, scale 0 to 100 (0 no effect, 100 complete control)
[6] = 250 g ai/ha, scale of 0 to 100, 0 is no effect, 100 is complete control
[7] = scale 0 to 100 (0 no effect, 100 complete control)
[8] = 500 g ai/ha, scale 0 to 100 (0 no effect, 100 complete control), visual, 12 to 14 days

SMILES: CCn1nc(C(C)(C)C)cc1C(=O)Nc1cccc(C(N)=O)n1 [Compound 162, 6-[[[3-(1,1-dimethylethyl)-1-ethyl-1H-pyrazol-5-yl]carbonyl]amino]-2-pyridinecarboxamide]
- Plant response rating, Foxtail, Giant (giant foxtail; 500 g ai/ha; visual rating 0-100, 0 no effect, 100 complete control; preemergence): 100
- Foxtail, Giant plant response rating (giant foxtail; postemergence, 125 g ai/ha; visual rating, scale 0 (no effect) to 100 (complete control)): 20
- Foxtail, Giant plant response rating (giant foxtail; postemergence, 500 g ai/ha; visual rating, scale 0 (no effect) to 100 (complete control)): 30
- Plant response rating, Foxtail, Giant (giant foxtail; preemergence, 125 g ai/ha; 0 to 100 scale, 0 is no effect, 100 is complete control): 100
- Plant response rating, Cocklebur (cocklebur; [1]): 65
- Cocklebur plant response rating (cocklebur): 75
- Plant response rating, Corn (corn; 62 g ai/ha, scale 0 to 100): 20
- Plant response rating, Corn (corn; [2]): 70
- Plant response rating, Corn (corn; [1]): 75
- Corn plant response rating (corn; [3]): 75
- Plant response rating, Kochia (kochia; 62 g ai/ha, scale 0 to 100): 65
- Plant response rating, Kochia (kochia; [2]): 75
- Kochia plant response rating (kochia; [3]): 100
- Plant response rating, Nutsedge, Yellow (yellow nutsedge; 62 g ai/ha, scale 0 to 100): 0
- Plant response rating, Nutsedge, Yellow (yellow nutsedge; [2]): 20
- Nutsedge, Yellow plant response rating (yellow nutsedge; [3]): 60
- Plant response rating, Pigweed (pigweed; 62 g ai/ha, scale 0 to 100): 100
- Plant response rating, Pigweed (pigweed; [2]): 100
- Pigweed plant response rating (pigweed; [3]): 100
- Ducksalad plant response rating (ducksalad; [4]): 70
- Ducksalad plant response rating (ducksalad; [5]): 85
- Ducksalad plant response rating (ducksalad; [6]): 95
- Plant response rating, Ducksalad (ducksalad; [7]): 100
- Barnyardgrass plant response rating (barnyardgrass; [4]): 45
- Barnyardgrass plant response rating (barnyardgrass; 125 g ai/ha, scale of 0 to 100, 0 is no effect, 100 is complete control): 65
- Barnyardgrass plant response rating (barnyardgrass; [6]): 75
- Plant response rating, Barnyardgrass (barnyardgrass; [7]): 90

SMILES: CCn1nc(C2(C)CC2)cc1C(=O)Nc1cc(C(=O)N(C)C)ccc1F [Compound 299]
- Foxtail, Giant plant response rating (0 to 100 scale) (giant foxtail; 125 g ai/ha; 0 = no effect, 100 = complete control; preemergence): 100
- Foxtail, Giant plant response rating (giant foxtail; 125 g ai/ha; visual rating, scale 0 (no effect) to 100 (complete control); postemergence): 10
- Plant response rating, Foxtail, Giant (giant foxtail; 500 g ai/ha; visual rating, 0 = no effect, 100 = complete control; preemergence): 100
- Foxtail, Giant plant response rating (giant foxtail; postemergence, 500 g ai/ha; scale 0 to 100, 0 is no effect, 100 is complete control): 80
- Plant response rating, Cocklebur (cocklebur; 62 g ai/ha, scale 0 to 100): 0
- Plant response rating, Cocklebur (cocklebur; [2]): 40
- Plant response rating, Cocklebur (cocklebur; 250 g ai/ha, scale 0-100): 80
- Cocklebur plant response rating (cocklebur): 95
- Plant response rating, Corn (corn; [2]): 25
- Plant response rating, Corn (corn; 250 g ai/ha, scale 0-100): 60
- Plant response rating, Corn (corn; [8]): 60
- Plant response rating, Kochia (kochia; 62 g ai/ha, scale 0 to 100): 100
- Plant response rating, Kochia (kochia; [2]): 100
- Plant response rating, Kochia (kochia; 250 g ai/ha, scale 0-100): 100
- Plant response rating, Kochia (kochia; [8]): 100
- Plant response rating, Nutsedge, Yellow (yellow nutsedge; 62 g ai/ha, scale 0 to 100): 40
- Plant response rating, Nutsedge, Yellow (yellow nutsedge; [2]): 50
- Plant response rating, Nutsedge, Yellow (yellow nutsedge; 250 g ai/ha, scale 0-100): 60
- Plant response rating, Nutsedge, Yellow (yellow nutsedge; [8]): 80
- Plant response rating, Pigweed (pigweed; 62 g ai/ha, scale 0 to 100): 100
- Plant response rating, Pigweed (pigweed; [2]): 100
- Plant response rating, Pigweed (pigweed; 250 g ai/ha, scale 0-100): 100
- Plant response rating, Pigweed (pigweed; [8]): 100
- Ducksalad plant response rating (ducksalad; 62 g ai/ha, scale 0 to 100): 95
- Ducksalad plant response rating (ducksalad; [5]): 95
- Ducksalad plant response rating (ducksalad; [6]): 95
- Plant response rating, Ducksalad (ducksalad; [7]): 95
- Barnyardgrass plant response rating (barnyardgrass; [4]): 85
- Barnyardgrass plant response rating (barnyardgrass; [5]): 85
- Barnyardgrass plant response rating (barnyardgrass; [6]): 95
- Plant response rating, Barnyardgrass (barnyardgrass; [7]): 95
